Data reported in US10112941B2, “Tricyclic compounds as anticancer agents” (BRISTOL-MYERS SQUIBB COMPANY, priority 2013, dated 2018).
pIC50: −log10 of the molar value.

Biological target: BRD4 (Homo sapiens, UniProt O60885)
Experiment: Time Resolved Fluorescence Resonance Energy Transfer (TR-FRET) binding assay, BRD4
Settings: FRET BRD4 IC50 (nM), one of the FRET assays described

Compound | IC50
Cn1nnc(Br)c1-c1cnc2c3ccc(C(C)(C)O)cc3n([C@H](c3ccccc3)C3CCOCC3)c2c1 [Example 384, 2-[3-(4-Bromo-1-methyl-1H-1,2,3-triazol-5-yl)-5-[(S)-oxan-4-yl(phenyl)methyl]-5H-pyrido[3,2-b]indol-7-yl]propan-2-ol] | < 5 nM
Cn1nnc(Cl)c1-c1cnc2c3ccc(C(C)(C)O)cc3n([C@H](c3ccccc3)C3CCOCC3)c2c1 [Example 387, 2-[3-(4-Chloro-1-methyl-1H-1,2,3-triazol-5-yl)-5-[(S)-oxan-4-yl(phenyl)methyl]-5H-pyrido[3,2-b]indol-7-yl]propan-2-ol] | < 5 nM

Same assay, conditions: one of the FRET assays described; read-out: FRET BRD4 IC50

Compound | pIC50
COC(=O)Nc1ccc2c3ncc(-c4c(C)nnn4C)cc3n([C@H](c3ccccc3)C3CCOCC3)c2c1 [Example 365, Methyl N-[3-(dimethyl-1H-1,2,3-triazol-5-yl)-5-[(S)-oxan-4-yl(phenyl)methyl]-5H-pyrido[3,2-b]indol-7-yl]carbamate] | > 8.30
CCOC(=O)Nc1ccc2c3ncc(-c4c(C)nnn4C)cc3n([C@H](c3ccccc3)C3CCOCC3)c2c1 [Example 366, Ethyl N-[3-(dimethyl-1H-1,2,3-triazol-5-yl)-5-[(S)-oxan-4-yl(phenyl)methyl]-5H-pyrido[3,2-b]indol-7-yl]carbamate] | > 8.30
Cc1nnn(C)c1-c1cnc2c3ccc(NC(=O)OC(C)C)cc3n([C@H](c3ccccc3)C3CCOCC3)c2c1 [Example 367, Propan-2-yl N-[3-(dimethyl-1H-1,2,3-triazol-5-yl)-5-[(S)-oxan-4-yl(phenyl)methyl]-5H-pyrido[3,2-b]indol-7-yl]carbamate] | > 8.30
Cc1nnn(C)c1-c1cnc2c3c(F)cc(C(C)(C)O)cc3n([C@H](c3ccccc3)C3CCOCC3)c2c1 [Example 369, 2-[3-(Dimethyl-1H-1,2,3-triazol-5-yl)-9-fluoro-5-[(S)-oxan-4-yl(phenyl)methyl]-5H-pyrido[3,2-b]indol-7-yl]propan-2-ol] | > 8.30
Cc1noc(C)c1-c1cnc2c3c(F)cc(C(C)(C)O)cc3n([C@H](c3ccccc3)C3CCOCC3)c2c1 [Example 370, 2-[3-(Dimethyl-1,2-oxazol-4-yl)-9-fluoro-5-[(S)-oxan-4-yl(phenyl)methyl]-5H-pyrido[3,2-b]indol-7-yl]propan-2-ol] | > 8.30
Cc1nnn(C)c1-c1cnc2c3cc(S(C)(=O)=O)ccc3n([C@H](c3ccccc3)C3CCOCC3)c2c1 [Example 375, 5-{8-Methanesulfonyl-5-[(S)-oxan-4-yl(phenyl)methyl]-5H-pyrido[3,2-b]indol-3-yl}-1,4-dimethyl-1H-1,2,3-triazole] | > 8.30
Cc1nnn(C)c1-c1cnc2c3cccc(S(C)(=O)=O)c3n([C@H](c3ccccc3)C3CCOCC3)c2c1 [Example 376, 5-{6-Methanesulfonyl-5-[(S)-oxan-4-yl(phenyl)methyl]-5H-pyrido[3,2-b]indol-3-yl}-1,4-dimethyl-1H-1,2,3-triazole] | > 8.30
Cc1nnn(C)c1-c1cnc2c3cccc(S(C)(=O)=O)c3n([C@@H](CCC(F)(F)F)c3ccccc3)c2c1 [Example 377, 5-{6-Methanesulfonyl-5-[(1S)-4,4,4-trifluoro-1-phenylbutyl]-5H-pyrido[3,2-b]indol-3-yl}-1,4-dimethyl-1H-1,2,3-triazole] | > 8.30
[2H]C([2H])([2H])Oc1nnn(C)c1-c1cnc2c3ccc(C(C)(C)O)cc3n([C@H](c3ccccc3)C3CCOCC3)c2c1 [Example 378, 2-{3-[4-(^2H3)Methoxy-1-methyl-1H-1,2,3-triazol-5-yl]-5-[(S)-oxan-4-yl(phenyl)methyl]-5H-pyrido[3,2-b]indol-7-yl}propan-2-ol] | > 8.30
COc1nnn(C)c1-c1cnc2c3ccc(C(C)(C)O)cc3n([C@H](c3ccccc3)C3CCOCC3)c2c1 [Example 379, 2-[3-(4-Methoxy-1-Methyl-1H-1,2,3-triazol-5-yl)-5-[(S)-oxan-4-yl(phenyl)methyl]-5H-pyrido[3,2-b]indol-7-yl]propan-2-ol] | > 8.30
[2H]C([2H])([2H])Oc1nnn(C([2H])([2H])[2H])c1-c1cnc2c3ccc(C(C)(C)O)cc3n([C@H](c3ccccc3)C3CCOCC3)c2c1 [Example 380, 2-{3-[4-(^2H3)Methoxy-1-(^2H3)methyl-1H-1,2,3-triazol-5-yl]-5-[(S)-oxan-4-yl(phenyl)methyl]-5H-pyrido[3,2-b]indol-7-yl}propan-2-ol] | > 8.30
[2H]C([2H])([2H])n1nnc(OC)c1-c1cnc2c3ccc(C(C)(C)O)cc3n([C@H](c3ccccc3)C3CCOCC3)c2c1 [Example 381, 2-{3-[4-Methoxy-1-(^2H3)methyl-1H-1,2,3-triazol-5-yl]-5-[(S)-oxan-4-yl(phenyl)methyl]-5H-pyrido[3,2-b]indol-7-yl}propan-2-ol] | > 8.30
CCOc1nnn(C)c1-c1cnc2c3ccc(C(C)(C)O)cc3n([C@H](c3ccccc3)C3CCOCC3)c2c1 [Example 382, 2-[3-(4-Ethoxy-1-methyl-1H-1,2,3-triazol-5-yl)-5-[(S)-oxan-4-yl(phenyl)methyl]-5H-pyrido[3,2-b]indol-7-yl]propan-2-ol] | > 8.30
Cn1nnc(Br)c1-c1cnc2c3cc(Br)c(C(C)(C)O)cc3n([C@H](c3ccccc3)C3CCOCC3)c2c1 [Example 383, 2-[8-Bromo-3-(4-bromo-1-methyl-1H-1,2,3-triazol-5-yl)-5-[(S)-oxan-4-yl(phenyl)methyl]-5H-pyrido[3,2-b]indol-7-yl]propan-2-ol] | > 8.30
Cn1nnc(C2CC2)c1-c1cnc2c3ccc(C(C)(C)O)cc3n([C@H](c3ccccc3)C3CCOCC3)c2c1 [Example 385, 2-[3-(4-Cyclopropyl-1-methyl-1H-1,2,3-triazol-5-yl)-5-[(S)-oxan-4-yl(phenyl)methyl]-5H-pyrido[3,2-b]indol-7-yl]propan-2-ol] | > 8.30
Cn1nnc(Cl)c1-c1cnc2c3cc(Cl)c(C(C)(C)O)cc3n([C@H](c3ccccc3)C3CCOCC3)c2c1 [Example 386, 2-[8-Chloro-3-(4-chloro-1-methyl-1H-1,2,3-triazol-5-yl)-5-[(S)-oxan-4-yl(phenyl)methyl]-5H-pyrido[3,2-b]indol-7-yl]propan-2-ol] | > 8.30
CCc1nnn(C)c1-c1cnc2c3ccc(C(C)(C)O)cc3n([C@H](c3ccccc3)C3CCOCC3)c2c1 [Example 388, 2-[3-(4-Ethyl-1-methyl-1H-1,2,3-triazol-5-yl)-5-[(S)-oxan-4-yl(phenyl)methyl]-5H-pyrido[3,2-b]indol-7-yl]propan-2-ol] | > 8.30
Cn1nnc(N)c1-c1cnc2c3ccc(C(C)(C)O)cc3n([C@H](c3ccccc3)C3CCOCC3)c2c1 [Example 389, 2-[3-(4-Amino-1-methyl-1H-1,2,3-triazol-5-yl)-5-[(S)-oxan-4-yl(phenyl)methyl]-5H-pyrido[3,2-b]indol-7-yl]propan-2-ol] | > 8.30
CNc1nnn(C)c1-c1cnc2c3ccc(C(C)(C)O)cc3n([C@H](c3ccccc3)C3CCOCC3)c2c1 [Example 390, 2-{3-[1-Methyl-4-(methylamino)-1H-1,2,3-triazol-5-yl]-5-[(S)-oxan-4-yl(phenyl)methyl]-5H-pyrido[3,2-b]indol-7-yl}propan-2-ol] | > 8.30
COc1nnn(C)c1-c1cnc2c3ccc(S(C)(=O)=O)cc3n([C@H](c3ccccc3)C3CCOCC3)c2c1 [Example 391, 5-{7-Methanesulfonyl-5-[(S)-oxan-4-yl(phenyl)methyl]-5H-pyrido[3,2-b]indol-3-yl}-4-methoxy-1-methyl-1H-1,2,3-triazole] | > 8.30
[2H]C([2H])([2H])Oc1nnn(C)c1-c1cnc2c3ccc(NC(=O)OC(C)C)cc3n([C@H](c3ccccc3)C3CCOCC3)c2c1 [Example 392, Propan-2-yl N-{3-[4-(^2H3)methoxy-1-methyl-1H-1,2,3-triazol-5-yl]-5-[(S)-oxan-4-yl(phenyl)methyl]-5H-pyrido[3,2-b]indol-7-yl}carbamate] | > 8.30
[2H]C([2H])([2H])c1nnn(C)c1-c1cnc2c3ccc(C(C)(C)O)c(Cl)c3n([C@H](c3ccccc3)C3CCOCC3)c2c1 [Example 393, 2-{6-Chloro-3-[4-(^2H3)methyl-1-methyl-1H-1,2,3-triazol-5-yl]-5-[(S)-oxan-4-yl(phenyl)methyl]-5H-pyrido[3,2-b]indol-7-yl}propan-2-ol] | > 8.30
Cc1nnn(C)c1-c1cnc2c3ccc(CO)cc3n([C@H](c3ccccc3)C3CCOCC3)c2c1 [Example 405, [3-(Dimethyl-1H-1,2,3-triazol-5-yl)-5-[(S)-oxan-4-yl(phenyl)methyl]-5H-pyrido[3,2-b]indol-7-yl]methanol] | > 8.30
[2H]C([2H])(O)c1ccc2c3ncc(-c4c(C)nnn4C)cc3n([C@H](c3ccccc3)C3CCOCC3)c2c1 [Example 407, [3-(Dimethyl-1H-1,2,3-triazol-5-yl)-5-[(S)-oxan-4-yl(phenyl)methyl]-5H-pyrido[3,2-b]indol-7-yl](^2H2)methanol] | > 8.30
Cc1nnn(C)c1-c1cnc2c3ccc(C(O)(C4CC4)C4CC4)cc3n([C@H](c3ccccc3)C3CCOCC3)c2c1 [Example 408, Dicyclopropyl[3-(dimethyl-1H-1,2,3-triazol-5-yl)-5-[(S)-oxan-4-yl(phenyl)methyl]-5H-pyrido[3,2-b]indol-7-yl]methanol] | > 8.30
Cc1nnn(C)c1-c1cnc2c3cc(Cl)c(C(C)(C)O)cc3n([C@H](c3ccccc3)C3CCOCC3)c2c1 [Example 409, 2-[8-Chloro-3-(dimethyl-1H-1,2,3-triazol-5-yl)-5-[(S)-oxan-4-yl(phenyl)methyl]-5H-pyrido[3,2-b]indol-7-yl]propan-2-ol] | > 8.30
Cc1nnn(C)c1-c1cnc2c3ccc(C(C)(C)NS(C)(=O)=O)cc3n([C@H](c3ccccc3)C3CCOCC3)c2c1 [Example 411, N-{2-[3-(Dimethyl-1H-1,2,3-triazol-5-yl)-5-[(S)-oxan-4-yl(phenyl)methyl]-5H-pyrido[3,2-b]indol-7-yl]propan-2-yl}methanesulfonamide] | > 8.30
COC(=O)NC(C)(C)c1ccc2c3ncc(-c4c(C)nnn4C)cc3n([C@H](c3ccccc3)C3CCOCC3)c2c1 [Example 412, Methyl N-{2-[3-(dimethyl-1H-1,2,3-triazol-5-yl)-5-[(S)-oxan-4-yl(phenyl)methyl]-5H-pyrido[3,2-b]indol-7-yl]propan-2-yl}carbamate] | > 8.30
